{"source": "patent US20170190671A1", "about": "“BIS(ARYL)CATECHOL DERIVATIVES AS HERBICIDES” (E I DU PONT DE NEMOURS AND COMPANY, priority 2014, published 2017)", "assay_type_in_all_cases": "in vivo", "key": {"kochia (Kochia scoparia) [1]": {"test_system": "kochia (Kochia scoparia)", "assay": "Test A postemergence", "settings": "Bassia scoparia, post-emergence, 240 h, 0 to 100 scale, read-out: Plant response rating, Kochia", "from_the_text": "(§1) Seeds of plant species selected from barnyardgrass (Echinochloa crus-galli), kochia (Kochia scoparia), ragweed (common ragweed, Ambrosia elatior), Italian ryegrass (Lolium multiflorum), large (Lg) crabgrass (Digitaria sanguinalis), giant foxtail (Setaria faberii), morningglory (Ipomoea spp.), pigweed (Amaranthus retroflexus), velvetleaf (Abutilon theophrasti), wheat (Triticum aestivum), and corn (Zea mays) were planted into a blend of loam soil and sand and treated preemergence with a directed soil spray using test chemicals formulated in a non-phytotoxic solvent mixture which included a surfactant.\n(§2) At the same time, plants selected from these crop and weed species and also blackgrass (Alopecurus myosuroides), and galium (catchweed bedstraw, Galium aparine) were planted in pots containing the same blend of loam soil and sand and treated with postemergence applications of test chemicals formulated in the same manner. Plants ranged in height from 2 to 10 cm and were in the one- to two-leaf stage for the postemergence treatment. Treated plants and untreated controls were maintained in a greenhouse for approximately 10 days, after which time all treated plants were compared to untreated controls and visually evaluated for injury. Plant response ratings, summarized in Table A, are based on a 0 to 100 scale where 0 is no effect and 100 is complete control. A dash (-) response means no test result."}, "[2]": {"test_system": "ragweed (common ragweed, Ambrosia elatior)", "assay": "Test A postemergence", "settings": "Ambrosia artemisiifolia, post-emergence, 240 h, 0 to 100 scale, read-out: Plant response rating, Ragweed", "from_the_text": "as §1, §2"}, "[3]": {"test_system": "wheat (Triticum aestivum)", "assay": "Test A postemergence", "settings": "Triticum aestivum, post-emergence, 240 h, 0 to 100 scale, read-out: Plant response rating, Wheat", "from_the_text": "as §1, §2"}, "[4]": {"test_system": "galium (catchweed bedstraw, Galium aparine)", "assay": "Test A postemergence", "settings": "Galium, post-emergence, 240 h, 0 to 100 scale, read-out: Plant response rating, Galium", "from_the_text": "as §1, §2"}, "[5]": {"test_system": "Italian ryegrass (Lolium multiflorum)", "assay": "Test A postemergence", "settings": "Lolium multiflorum, post-emergence, 240 h, 0 to 100 scale, read-out: Plant response rating, Ryegrass, Italian", "from_the_text": "as §1, §2"}, "[6]": {"test_system": "giant foxtail (Setaria faberii)", "assay": "Test A postemergence", "settings": "Setaria faberi, post-emergence, 240 h, 0 to 100 scale, read-out: Plant response rating, Foxtail, Giant", "from_the_text": "as §1, §2"}, "[7]": {"test_system": "barnyardgrass (Echinochloa crus-galli)", "assay": "Test A postemergence", "settings": "Echinochloa crus-galli, post-emergence, 240 h, 0 to 100 scale, read-out: Plant response rating, Barnyardgrass", "from_the_text": "as §1, §2"}, "[8]": {"test_system": "pigweed (Amaranthus retroflexus)", "assay": "Test A postemergence", "settings": "Amaranthus retroflexus, post-emergence, 240 h, 0 to 100 scale, read-out: Plant response rating, Pigweed", "from_the_text": "as §1, §2"}, "[9]": {"test_system": "blackgrass (Alopecurus myosuroides)", "assay": "Test A postemergence", "settings": "Alopecurus myosuroides, post-emergence, 240 h, 0 to 100 scale, read-out: Plant response rating, Blackgrass", "from_the_text": "as §1, §2"}, "corn (Zea mays)": {"test_system": "corn (Zea mays)", "assay": "Test A postemergence", "settings": "Zea mays, post-emergence, 240 h, 0 to 100 scale", "from_the_text": "as §1, §2"}, "kochia (Kochia scoparia) [10]": {"test_system": "kochia (Kochia scoparia)", "assay": "Test A preemergence", "settings": "Bassia scoparia, pre-emergence, 240 h", "from_the_text": "as §1, §2"}, "[11]": {"test_system": "ragweed (common ragweed, Ambrosia elatior)", "assay": "Test A preemergence", "settings": "Ambrosia artemisiifolia, pre-emergence, 240 h", "from_the_text": "as §1, §2"}, "[12]": {"test_system": "Italian ryegrass (Lolium multiflorum)", "assay": "Test A preemergence", "settings": "Lolium multiflorum, pre-emergence, 240 h", "from_the_text": "as §1, §2"}, "[13]": {"test_system": "giant foxtail (Setaria faberii)", "assay": "Test A preemergence", "settings": "Setaria faberi, pre-emergence, 240 h", "from_the_text": "as §1, §2"}, "[14]": {"test_system": "barnyardgrass (Echinochloa crus-galli)", "assay": "Test A preemergence", "settings": "Echinochloa crus-galli, pre-emergence, 240 h", "from_the_text": "as §1, §2"}, "[15]": {"test_system": "pigweed (Amaranthus retroflexus)", "assay": "Test A preemergence", "settings": "Amaranthus retroflexus, pre-emergence, 240 h", "from_the_text": "as §1, §2"}}}
{"smiles": "N#Cc1cccc(Oc2ncc(Br)cn2)c1Oc1ccc(Br)cn1", "note": "[Compound 12]", "values": [{"measurement": "pest or weed control at 31 g/ha", "setting": "kochia (Kochia scoparia) [1]; 31 g ai/ha", "value": 0, "unit": "%"}, {"measurement": "pest or weed control at 125 g/ha", "setting": "kochia (Kochia scoparia) [1]; 125 g ai/ha", "value": 20, "unit": "%"}, {"measurement": "pest or weed control at 31 g/ha", "setting": "[2]; 31 g ai/ha", "value": 0, "unit": "%"}, {"measurement": "pest or weed control at 125 g/ha", "setting": "[2]; 125 g ai/ha", "value": 0, "unit": "%"}, {"measurement": "plant injury at 31 g/ha", "setting": "[3]; 31 g ai/ha", "value": 0, "unit": "%"}, {"measurement": "plant injury at 125 g/ha", "setting": "[3]; 125 g ai/ha", "value": 20, "unit": "%"}, {"measurement": "pest or weed control at 31 g/ha", "setting": "[4]; 31 g ai/ha", "value": 10, "unit": "%"}, {"measurement": "pest or weed control at 125 g/ha", "setting": "[4]; 125 g ai/ha", "value": 50, "unit": "%"}, {"measurement": "pest or weed control at 31 g/ha", "setting": "[5]; 31 g ai/ha", "value": 0, "unit": "%"}, {"measurement": "pest or weed control at 125 g/ha", "setting": "[5]; 125 g ai/ha", "value": 0, "unit": "%"}, {"measurement": "pest or weed control at 31 g/ha", "setting": "[6]; 31 g ai/ha", "value": 0, "unit": "%"}, {"measurement": "pest or weed control at 125 g/ha", "setting": "[6]; 125 g ai/ha", "value": 40, "unit": "%"}, {"measurement": "pest or weed control at 31 g/ha", "setting": "[7]; 31 g ai/ha", "value": 0, "unit": "%"}, {"measurement": "pest or weed control at 125 g/ha", "setting": "[7]; 125 g ai/ha", "value": 20, "unit": "%"}, {"measurement": "pest or weed control at 31 g/ha", "setting": "[8]; 31 g ai/ha", "value": 10, "unit": "%"}, {"measurement": "pest or weed control at 125 g/ha", "setting": "[8]; 125 g ai/ha", "value": 100, "unit": "%"}, {"measurement": "pest or weed control at 31 g/ha", "setting": "[9]; 31 g ai/ha", "value": 0, "unit": "%"}, {"measurement": "pest or weed control at 125 g/ha", "setting": "[9]; 125 g ai/ha", "value": 50, "unit": "%"}, {"measurement": "Corn plant response rating (crop injury, 0 = no effect, 100 = complete kill) at 31 g/ha", "setting": "corn (Zea mays); 31 g ai/ha", "value": 0, "unit": "%"}, {"measurement": "Corn plant response rating (crop injury, 0 = no effect, 100 = complete kill) at 125 g/ha", "setting": "corn (Zea mays); 125 g ai/ha", "value": 20, "unit": "%"}, {"measurement": "pest or weed control at 31 g/ha", "setting": "kochia (Kochia scoparia) [10]; 31 g ai/ha, 0 to 100 scale (0 no effect, 100 complete control), read-out: Kochia plant response rating", "value": 0, "unit": "%"}, {"measurement": "pest or weed control at 125 g/ha", "setting": "kochia (Kochia scoparia) [10]; 125 g ai/ha, 0 to 100 scale, read-out: Plant response rating, Kochia", "value": 20, "unit": "%"}, {"measurement": "pest or weed control at 31 g/ha", "setting": "[11]; 31 g ai/ha, 0 to 100 scale (0 no effect, 100 complete control), read-out: Ragweed plant response rating", "value": 0, "unit": "%"}, {"measurement": "pest or weed control at 125 g/ha", "setting": "[11]; 125 g ai/ha, 0 to 100 scale, read-out: Plant response rating, Ragweed", "value": 0, "unit": "%"}, {"measurement": "pest or weed control at 31 g/ha", "setting": "[12]; 31 g ai/ha, 0 to 100 scale (0 no effect, 100 complete control), read-out: Ryegrass, Italian plant response rating", "value": 0, "unit": "%"}, {"measurement": "pest or weed control at 125 g/ha", "setting": "[12]; 125 g ai/ha, 0 to 100 scale, read-out: Plant response rating, Ryegrass, Italian", "value": 0, "unit": "%"}, {"measurement": "pest or weed control at 31 g/ha", "setting": "[13]; 31 g ai/ha, 0 to 100 scale (0 no effect, 100 complete control), read-out: Foxtail, Giant plant response rating", "value": 0, "unit": "%"}, {"measurement": "pest or weed control at 125 g/ha", "setting": "[13]; 125 g ai/ha, 0 to 100 scale, read-out: Plant response rating, Foxtail, Giant", "value": 70, "unit": "%"}, {"measurement": "pest or weed control at 31 g/ha", "setting": "[14]; 31 g ai/ha, 0 to 100 scale (0 no effect, 100 complete control), read-out: Barnyardgrass plant response rating", "value": 0, "unit": "%"}, {"measurement": "pest or weed control at 125 g/ha", "setting": "[14]; 125 g ai/ha, 0 to 100 scale, read-out: Plant response rating, Barnyardgrass", "value": 30, "unit": "%"}, {"measurement": "pest or weed control at 31 g/ha", "setting": "[15]; 31 g ai/ha, 0 to 100 scale (0 no effect, 100 complete control), read-out: Pigweed plant response rating", "value": 60, "unit": "%"}, {"measurement": "pest or weed control at 125 g/ha", "setting": "[15]; 125 g ai/ha, 0 to 100 scale, read-out: Plant response rating, Pigweed", "value": 100, "unit": "%"}]}
